# Experimental data published in patent US20150141506A1, “INDANE DIMERS FOR USE IN THE TREATMENT OF AUTOIMMUNE INFLAMMATORY DISEASE” (Venantius Limited, priority 2012, published 2015).
# Entries after “also recorded” stand apart in the source; their conditions may differ. Marks after values point to notes of the source that are not given here.
# Tests used:
# [1] = tested on: 5% DSS colitis in BALB/c mice; assay: Acute murine 5% DSS colitis model, Experiment 1; format: in vivo; conditions: for activity in 5% DSS murine colitis (DAI), in words: 30 mg/kg p.o. daily for 7 days
# From the text: The study is widely used as a model for studying the pathogenesis of UC and also for screening new therapeutic interventions for the treatment of UC.
# In these studies, an acute colitis model was used, with 5% DSS administered in the drinking water of BALB/c mice. This dosage regime induces severe acute colitis, by days 7-8 mice had overt rectal bleeding and marked weight loss; unless sacrificed beforehand, all mice would have died by days 10-12.
# Specific Pathogen-Free BALB/c mice, 6-8 weeks of age, were obtained from a commercial supplier (Harlan UK). Mice were fed irradiated diet and housed in individually ventilated cages (Tecniplast UK) under positive pressure.
# DSS (5%) was dissolved in drinking water. Compounds were administered orally at a dose of 10 mg/kg or 30 mg/kg on days 0-7, and mice were culled on day 8 or day 9, depending on the severity of the disease. The mice were checked each day for morbidity and the weight of individual mice was recorded. Induction of colitis was determined upon autopsy, length of colon and histology. Colons were recovered and stored at −20° C. for immunological analysis. All of the compounds and experimental groups are randomly alphabetically labelled. Throughout experiments all data recording was performed in a blind manner. The codes on boxes/groups were not broken until after the data was analysed i.e. boxes labelled A, B, C etc were identified as untreated, DSS-treated, or DSS+compound-treated.
# To quantify the extent of colitis, a disease activity index (DAI) was determined based on weight loss, faecal blood and stool consistency. A score was given for each parameter, with the sum of the scores used as the DAI. For each treatment group n=8.
# All compounds were prepared for oral gavage (0.1 mL per os (p.o.) per 10 g body weight) as a suspension in 0.5% carboxymethyl cellulose/2% Tween 80, at a dose of 3-30 mg/Kg.
# [2] = Partition coefficient (Log10 POW) by HPLC method; format: physicochemical; conditions: reverse phase C18 HPLC
# [3] = Solubility in Milli-RO water and pH buffers; format: physicochemical
# Procedure: The sodium salt, potassium salt, calcium salt, α-methylbenzylamine salt and N-Methyl-(D)-Glucamine salt were synthesised.
# The solubility of the four compounds were determined: […]
# [4] = tested on: IL2 release from Jurkat cells; assay: Effect of compounds on IL-2 secretion in T lymphocytes (Jurkat 6.1, anti-CD3/anti-CD28 stimulated, ELISA); format: cell-based; conditions: for IL-2 production, absolute values: 30 min pre-treatment, DMSO control 320.67 (plate 2), 338.25 (plate 3); for IL-2 production, absolute values / activity at 1 µM / activity at 10 µM: 24 h; for activity at 1 µM / activity at 10 µM: Homo sapiens, Jurkat, read-out: IL2 release as percentage of anti-CD3/CD28 stimulated release in presence of DMSO, Mean; for effect on IL2 release, in words: 1 and 10 μM
# Procedure: The T cell line Jurkat 6.1 (ATCC) was used. Cells were pre-treated for 30 min with 1 μM or 10 μM of the respective compound and then stimulated with plate-bound anti-CD3 (BD Pharmingen) and anti-CD28 (AnCell). DMSO was used as vehicle control. […] After 24 hs the supernatant was collected and IL-2 secretion was measured by ELISA.
# Compounds were prepared by dissolution in DMSO to yield final concentrations of 1 and 10 μg/ml
# [5] = day 7, 10 mg/kg daily for 7 days, vehicle 9.3±0.51
# [6] = day 7, 30 mg/kg p.o. daily for 7 days, vehicle 9.0±0.53
Compound,"IL-2 production, absolute values ([4]; compound 1 uM)","IL-2 production, absolute values ([4]; compound 10 uM)",activity at 1 µM [4],activity at 10 µM [4],further results
"C[C@]12C=CC(=O)C=C1CC[C@@H]1[C@@H]2[C@@H](O)C[C@@]2(C)[C@H]1CC[C@]2(O)C(=O)CO [Prednisolone, reference compound]",,,,,"DAI on the day of autopsy versus vehicle controls ([1]; 5 mg/kg): reduced DAI scores; colon cytokine levels (IL1β, TNFα, IL6) ([1]; day 7, Prednisolone 5 mg/kg): reduced (p<0.05); inhibition of colon shortening versus vehicle controls ([1]; day 7, Prednisolone 5 mg/kg): did have a significant effect; reduction of colonic myeloperoxidase (MPO) activity ([1]; day 7, Prednisolone 5 mg/kg): 54%; colon pathology (histology score) relative to vehicle ([1]; prednisolone 5 mg/Kg): no significant improvement"
"CNCC(O)C(O)C(O)C(O)CO.O=C(O)c1ccc(C[C@]2(C3=Cc4ccccc4C3)Cc3ccccc3[C@H]2O)cc1 [Compound 7, 6-(Methylamino)hexane-1,2,3,4,5-pentanol 4-(((1S,2R)-1-hydroxy-2,3-dihydro-1H,1′H-2,2′-biinden-2-yl)methyl)benzoate]",,,,,"Log10 POW, Acid ([2]; acidic pH): 3.8; Log10 POW, Basic ([2]; alkaline pH): 3.5; Log10 POW, Neutral ([2]; neutral pH): 3.5; disease activity index (DAI) [1, 5]: no significant (P>0.05) effect; solubility, Milli-RO H20 ([3]; Milli-RO water, listed as Compound 5 N-Methyl-D-Glucamine salt): >60,000* μg/mL; solubility, pH 4.0 Buffer ([3]; pH 4.0 buffer): 0.14 μg/mL; solubility, pH 7.0 Buffer ([3]; pH 7.0 buffer, listed as Compound 5 N-Methyl-D-Glucamine salt): >60,000* μg/mL; solubility, pH 9.0 Buffer ([3]; pH 9.0 buffer, listed as Compound 5 N-Methyl-D-Glucamine salt): >60,000* μg/mL"
"O=C(O)c1ccc(C[C@@]2(C3=Cc4ccccc4C3)Cc3ccccc3[C@H]2O)cc1 (single isomer, unassigned) [Compound 2]",98.71 pg/mL,124.36 pg/mL,,,"activity in 5% DSS murine colitis (DAI), in words [1]: highly active; potency compared among the four enantiomers, in words ([1]; 30 and 10 mg/kg): most potent of the four enantiomers; disease activity index (DAI) [1, 5]: 2.1±0.7; disease activity index (DAI) [1, 6]: 2.5±0.71; aqueous solubility, in words ([3]; free acid enantiomers): limited aqueous solubility"
"CC(C)C[C@H](N)C(=O)O[C@@H]1c2ccccc2C[C@@]1(Cc1ccc(C(N)=O)cc1)C1=Cc2ccccc2C1 [Compound 42, (1S,2S)-2-(4-carbamoylbenzyl)-2,3-dihydro-1H,1′H-2,2′-biinden-1-yl L-leucinate]",77.71 pg/mL,49.57 pg/mL,76.1%,30%,
"O=C(Nc1ccc(O)c(C(=O)O)c1)c1ccc(C[C@]2(C3=Cc4ccccc4C3)Cc3ccccc3[C@@H]2O)cc1 [Compound 46, 2-hydroxy-5-(4-(((1R,2R)-1-hydroxy-2,3-dihydro-1H,1′H-[2,2′-biinden]-2-yl)methyl)benzamido)benzoic acid]",92.21 pg/mL,72.07 pg/mL,,,
"CC[C@H](C)[C@H](N)C(=O)O[C@H]1c2ccccc2C[C@]1(Cc1ccc(C(=O)O)cc1)C1=Cc2ccccc2C1 [Compound 26, 4-{[(1′R,2′R)-1′-(L-isoleucyloxy)-1′,3′-dihydro-1H,2′H-2,2′-biinden-2′yl]methyl}benzoic acid]",202.25 pg/mL,192.63 pg/mL,,,
"CCCOC(=O)c1ccc(C[C@]2(C3=Cc4ccccc4C3)Cc3ccccc3[C@@H]2OC(=O)[C@@H](N)CC(C)C)cc1 [Compound 34, propyl 4-(((1R,2R)-1-(((S)-2-amino-4-methylpentanoyl)oxy)-2,3-dihydro-1H,1′H-[2,2′-biinden]-2-yl)methyl)benzoate]",173.25 pg/mL,71.38 pg/mL,95.8%,51.5%,
"CC(C)C[C@H](N)C(=O)O[C@H]1c2ccccc2C[C@]1(Cc1ccc(C(N)=O)cc1)C1=Cc2ccccc2C1 [Compound 35, (1R,2R)-2-(4-carbamoylbenzyl)-2,3-dihydro-1H,1′H-2,2′-biinden-1-yl L-leucinate]",238.88 pg/mL,189.38 pg/mL,149%,95.5%,"effect on IL2 release, in words [4]: inactive"
"CNC(=O)c1ccc(C[C@]2(C3=Cc4ccccc4C3)Cc3ccccc3[C@@H]2OC(=O)[C@@H](N)CC(C)C)cc1 [Compound 37, (1R,2R)-2-[4-(methylcarbamoyl)benzyl]-2,3-dihydro-1H,1′H-2,2′-biinden-1-yl L-leucinate]",275.50 pg/mL,79.00 pg/mL,99.2%,50.2%,
"O=C(NCCO)c1ccc(C[C@@]2(C3=Cc4ccccc4C3)Cc3ccccc3[C@H]2O)cc1 [Compound 21, 4-{[(1′S,2′S)-1′-hydroxy-1′,3′-dihydro-1H,2′H-2,2′-biinden-2′-yl]methyl}-N-(2-hydroxyethyl)benzamide]",210.89 pg/mL,137.78 pg/mL,,,
"O=C(O)c1ccc(C[C@]2(C3=Cc4ccccc4C3)Cc3ccccc3[C@@H]2O)cc1 (single isomer, unassigned) [Compound 3]",150.07 pg/mL,98.57 pg/mL,,,"activity in 5% DSS murine colitis (DAI), in words [1]: minimal activity; disease activity index (DAI) [1, 6]: 5.3±0.6"
"CC(C)[C@H](N)C(=O)O[C@@H]1c2ccccc2C[C@@]1(Cc1ccc(C(=O)O)cc1)C1=Cc2ccccc2C1 [Compound 29, 4-{[(1′S,2′S)-1′-(L-valyloxy)-1′,3′-dihydro-1H,2′H-2,2′-biinden-2′-yl]methyl}benzoic acid]",220.50 pg/mL,177.88 pg/mL,,,
"CC(C)C[C@H](N)C(=O)O[C@@H]1c2ccccc2C[C@@]1(Cc1ccc(C(=O)NCCO)cc1)C1=Cc2ccccc2C1 [Compound 43, (1S,2S)-2-{4-[(2-Hydroxyethyl)carbamoyl]benzyl}-2,3-dihydro-1H,1′H-2,2′-biinden-1-yl leucinate]",97.57 pg/mL,12.79 pg/mL,72.4%,8.4%,"effect on IL2 release, in words [4]: greatest inhibition of IL2 release"
"O=C(O)c1ccc(C[C@@]2(C3=Cc4ccccc4C3)Cc3ccccc3[C@@H]2O)cc1 [Compound 4, 4-(((1R,2S)-1-hydroxy-2,3-dihydro-1H,1′H-2,2′-biinden-2-yl)methyl)benzoic acid]",97.21 pg/mL,94.21 pg/mL,,,"activity in 5% DSS murine colitis (DAI), in words [1]: without activity; also recorded: almost devoid of activity"
"CC(C)C[C@H](N)C(=O)O[C@H]1c2ccccc2C[C@]1(Cc1ccc(C(=O)NCCO)cc1)C1=Cc2ccccc2C1 [Compound 36, (1R,2R)-2-{4-[(2-hydroxyethyl)carbamoyl]benzyl}-2,3-dihydro-1H,1′H-2,2′-biinden-1-yl L-leucinate]",207.38 pg/mL,138.13 pg/mL,96%,56.3%,
"NC(=O)c1ccc(C[C@]2(C3=Cc4ccccc4C3)Cc3ccccc3[C@@H]2O)cc1 [Compound 13, 4-{[(1′R,2′R)-1′-hydroxy-1′,3′-dihydro-1H,2′H-2,2′-biinden-2′-yl]methyl}benzamide]",276.78 pg/mL,151.78 pg/mL,,,
